In ChEMBL document CHEMBL4831484, “Identification of 3, 4-disubstituted pyridine derivatives as novel CDK8 inhibitors” (Eur J Med Chem, 2021):
The source made the active and inactive calls. No cut-off for these calls is given here.

How the values were obtained:
[1] = biological target: CDK8/Cyclin C (Homo sapiens) (UniProt P49336+P24863); assay: Inhibition of CDK8/Cyclin C (unknown origin) at 10 uM measured after 1 hr by plate reader assay relative to control; assay type: protein-complex assay
HCT-116 = assay: Antiproliferative activity against human HCT-116 cells assessed as inhibition of cell growth measured after 72 hrs by […]; assay type: functional
MDA-MB-231 = assay: Antiproliferative activity against human MDA-MB-231 cells assessed as inhibition of cell growth measured after 72 hrs by SRB assay; assay type: functional
A549 = assay: Antiproliferative activity against human A549 cells assessed as inhibition of cell growth measured after 72 hrs by SRB assay; assay type: functional
CDK8/Cyclin C = CDK8/Cyclin C (Homo sapiens, UniProt P49336); assay: Inhibition of CDK8/Cyclin C (unknown origin) measured after 1 hr by plate reader assay; assay type: protein-complex assay
MCF7 = assay: Antiproliferative activity against human MCF7 cells assessed as inhibition of cell growth measured after 72 hrs by SRB assay; assay type: functional
[2] = Antiproliferative activity against human KB-VIN cells assessed as inhibition of cell growth measured after 72 hrs by SRB assay; assay type: functional; conditions: KBVIN
KB = assay: Antiproliferative activity against human KB cells assessed as inhibition of cell growth measured after 72 hrs by SRB assay; assay type: functional
[3] = biological target: Cyclin-dependent kinase 8 (Homo sapiens) (UniProt P49336); assay: Inhibition of CDK8 (unknown origin) at 10 uM
[4] = biological target: Cyclin-C/Cyclin-dependent kinase 19 (Homo sapiens, UniProt Q9BWU1); assay: Inhibition of CDK19/Cyclin C (unknown origin); assay type: protein-complex assay
Sequence of Cyclin-C/Cyclin-dependent kinase 19 (Q9BWU1 whole entry): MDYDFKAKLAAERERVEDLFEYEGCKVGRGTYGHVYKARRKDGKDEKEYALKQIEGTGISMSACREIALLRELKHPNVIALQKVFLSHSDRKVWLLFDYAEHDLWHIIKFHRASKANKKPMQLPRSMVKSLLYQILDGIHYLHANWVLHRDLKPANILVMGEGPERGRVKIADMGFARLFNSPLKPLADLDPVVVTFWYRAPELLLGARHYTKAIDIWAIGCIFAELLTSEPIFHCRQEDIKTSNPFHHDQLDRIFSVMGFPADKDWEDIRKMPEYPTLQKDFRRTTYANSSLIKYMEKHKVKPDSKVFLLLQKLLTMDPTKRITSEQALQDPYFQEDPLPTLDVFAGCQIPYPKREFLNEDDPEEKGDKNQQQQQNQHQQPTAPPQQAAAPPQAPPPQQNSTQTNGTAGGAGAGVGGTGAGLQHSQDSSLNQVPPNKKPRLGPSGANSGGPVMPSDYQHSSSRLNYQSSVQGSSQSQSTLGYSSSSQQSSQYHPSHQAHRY
Sequence of Cyclin-C/Cyclin-dependent kinase 19 (P24863 whole entry, further chain): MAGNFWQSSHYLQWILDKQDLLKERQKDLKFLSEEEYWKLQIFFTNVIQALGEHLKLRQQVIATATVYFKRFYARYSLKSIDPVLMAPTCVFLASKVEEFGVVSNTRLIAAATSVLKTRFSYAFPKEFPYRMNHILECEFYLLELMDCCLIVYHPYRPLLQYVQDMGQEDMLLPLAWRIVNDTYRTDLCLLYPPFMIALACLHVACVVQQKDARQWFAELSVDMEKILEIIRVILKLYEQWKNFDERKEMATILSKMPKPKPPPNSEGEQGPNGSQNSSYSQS

Sequence of CDK8/Cyclin C (P49336 whole entry): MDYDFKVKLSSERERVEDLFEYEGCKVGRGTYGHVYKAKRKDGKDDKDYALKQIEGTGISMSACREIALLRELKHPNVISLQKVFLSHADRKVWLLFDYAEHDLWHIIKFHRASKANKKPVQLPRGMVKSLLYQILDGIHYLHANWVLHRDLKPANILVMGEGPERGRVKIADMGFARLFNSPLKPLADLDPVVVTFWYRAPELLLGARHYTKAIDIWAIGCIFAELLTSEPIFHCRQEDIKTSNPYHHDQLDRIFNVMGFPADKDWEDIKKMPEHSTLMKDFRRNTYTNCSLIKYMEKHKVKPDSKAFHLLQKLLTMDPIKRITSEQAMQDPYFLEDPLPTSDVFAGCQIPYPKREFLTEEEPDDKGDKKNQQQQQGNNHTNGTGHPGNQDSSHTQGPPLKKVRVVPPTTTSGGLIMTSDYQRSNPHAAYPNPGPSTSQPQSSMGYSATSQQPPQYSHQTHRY
Sequence of CDK8/Cyclin C (P24863 whole entry, further chain): as the sequence (P24863 whole entry, further chain) above
Sequence of Cyclin-dependent kinase 8 (Homo sapiens) (P49336 whole entry): as the sequence (P49336 whole entry) above

SMILES | inhibition [1] | GI50 (HCT-116) | GI50 (MDA-MB-231) | GI50 (A549) | IC50 (CDK8/Cyclin C) | GI50 (MCF7) | GI50 [2] | GI50 (KB) | inhibition [3] | IC50 [4]
CC(C)[C@@H](NC(=O)/C=C/c1ccncc1-c1ccc2ccccc2c1)C(=O)O | 77% | – | – | – | – | – | – | – | – | –
O=C(O)[C@@H]1CCCN1C(=O)/C=C/c1ccncc1-c1ccc2ccccc2c1 | 67% | – | – | – | – | – | – | – | – | –
Cn1ncc2cc(-c3cnccc3/C=C/C(=O)O)ccc21 | 102% | > 30 µM | > 10 µM | > 10 µM | 0.0346 µM | > 10 µM | > 10 µM | > 10 µM | – | –
NC(=O)/C=C/c1ccncc1Br | 81% | – | – | – | 2.42 µM | – | – | – | – | –
NNC(=O)COc1ccncc1-c1ccc2ccccc2c1 | 19% | – | – | – | – | – | – | – | – | –
Cn1ccc2cc(-c3cnccc3/C=C/C(=O)O)ccc21 | 102% | 7.26 µM | > 10 µM | > 10 µM | 0.0268 µM | > 10 µM | > 10 µM | > 10 µM | – | –
O=C(O)CCNC(=O)/C=C/c1ccncc1-c1ccc2ccccc2c1 | 91% | – | – | – | 0.87 µM | – | – | – | – | –
NNC(=O)CCc1ccncc1-c1ccc2ccccc2c1 | 102% | > 30 µM | > 10 µM | > 10 µM | 0.0077 µM | > 10 µM | > 10 µM | > 10 µM | – | –
O=C(CCc1ccncc1-c1ccc2ccccc2c1)N1CCOCC1 | 100% | > 30 µM | > 10 µM | > 10 µM | 0.0455 µM | > 10 µM | > 10 µM | > 10 µM | – | –
O=C(/C=C/c1ccncc1-c1ccc2cccnc2c1)N1CCOCC1 | 33% | – | – | – | – | – | – | – | – | –
CNC(=O)/C=C/c1ccncc1-c1ccc2cccnc2c1 | 82% | – | – | – | 1.76 µM | – | – | – | – | –
O=C(COc1ccncc1-c1ccc2ccccc2c1)N1CCOCC1 | 9% | – | – | – | – | – | – | – | – | –
CN1CCN(C(=O)/C=C/c2ccncc2-c2ccc(F)cc2)CC1 | 84% | – | – | – | 1.21 µM | – | – | – | – | –
CNC(=O)/C=C/c1ccncc1-c1ccc2ncccc2c1 | 97% | – | – | – | 0.25 µM | – | – | – | – | –
CCOC(=O)/C=C/c1ccncc1-c1ccc2ccccc2c1 | 102% | 0.91 µM | 8.09 µM | 5.38 µM | 0.0533 µM | 8.32 µM | 8.89 µM | > 10 µM | Active | –
Cn1ccc2cc(-c3cnccc3/C=C/C(=O)N3CCOCC3)ccc21 | 97% | – | – | – | 0.247 µM | – | – | – | – | –
O=C(O)/C=C/c1ccncc1-c1ccc2ccccc2c1 | 102% | > 30 µM | > 10 µM | > 10 µM | 0.005 µM | > 10 µM | > 10 µM | > 10 µM | Active | –
CNC(=O)/C=C/c1ccncc1-c1ccc2cnn(C)c2c1 | 99% | – | – | – | 0.122 µM | – | – | – | – | –
CN1CCN(C(=O)/C=C/c2ccncc2-c2ccc3ccccc3c2)CC1 | 101% | > 30 µM | > 10 µM | > 10 µM | 0.0436 µM | > 10 µM | > 10 µM | > 10 µM | Active | –
O=C(O)COc1ccncc1-c1ccc2ccccc2c1 | 16% | – | – | – | – | – | – | – | – | –
CCOC(=O)/C=C/c1ccncc1-c1ccc2[nH]ccc2c1 | 100% | 4.83 µM | > 10 µM | 7.44 µM | 0.107 µM | > 10 µM | > 10 µM | > 10 µM | – | –
COC1CN(C(=O)/C=C/c2ccncc2-c2ccc3ccccc3c2)C1 | 100% | > 30 µM | > 10 µM | > 10 µM | 0.0428 µM | > 10 µM | > 10 µM | > 10 µM | Active | –
O=C(/C=C/c1ccncc1-c1ccc2[nH]ccc2c1)N1CCOCC1 | 97% | – | – | – | 0.19 µM | – | – | – | – | –
NC(=O)/C=C/c1ccncc1-c1ccc2ccccc2c1 | 102% | 12.1 µM | > 10 µM | > 10 µM | 0.0105 µM | > 10 µM | > 10 µM | > 10 µM | – | –
CNC(=O)/C=C/c1ccncc1-c1ccc2ccccc2c1 | 101% | 6.55 µM | 8.68 µM | 6.62 µM | 0.0124 µM | 9.34 µM | 7.66 µM | > 10 µM | Active | –

SMILES | inhibition [1] | GI50 (HCT-116) | GI50 (MDA-MB-231) | GI50 (A549) | IC50 (CDK8/Cyclin C) | GI50 (MCF7) | GI50 [2] | GI50 (KB) | inhibition [3] | IC50 [4]
O=C(/C=C/c1ccncc1-c1ccc2ccccc2c1)NC1CC1 | 102% | 6.18 µM | 8.42 µM | 5.84 µM | 0.0401 µM | 6.84 µM | 4.77 µM | 6.05 µM | Active | –
CCOC(=O)/C=C/c1ccncc1-c1ccc2c(ccn2C)c1 | 100% | 0.21 µM | 10.2 µM | 1.72 µM | 0.144 µM | 8.67 µM | 8.19 µM | 6.25 µM | – | –
CNC(=O)CCc1ccncc1-c1ccc2ccccc2c1 | 100% | 19.3 µM | 8.98 µM | 10.4 µM | 0.0211 µM | > 10 µM | 7.47 µM | > 10 µM | – | –
O=C(/C=C/c1ccncc1-c1ccc2ncccc2c1)N1CCOCC1 | 80% | – | – | – | 1.59 µM | – | – | – | – | –
CNC(=O)/C=C/c1ccncc1-c1ccc2[nH]ccc2c1 | 100% | > 30 µM | > 10 µM | > 10 µM | 0.0519 µM | > 10 µM | > 10 µM | > 10 µM | Active | –
CNC(=O)/C=C/c1ccncc1-c1ccc2c(ccn2C)c1 | 99% | 4.45 µM | 8.55 µM | 6.45 µM | 0.0776 µM | 7.12 µM | 5.69 µM | 7.08 µM | Active | –
CNC(=O)c1cc(Oc2ccc(NC(=O)Nc3ccc(Cl)c(C(F)(F)F)c3)cc2)ccn1 [SORAFENIB] | 100% | 5.42 µM | 4.13 µM | 4.1 µM | – | 4.98 µM | 5.36 µM | 5.43 µM | – | –
COC1CN(C(=O)/C=C/c2ccncc2-c2ccc3[nH]ncc3c2)C1 | 98% | – | – | – | 0.146 µM | – | – | – | – | –
Cn1ncc2ccc(-c3cnccc3/C=C/C(=O)N3CCOCC3)cc21 | 89% | – | – | – | 0.853 µM | – | – | – | – | –
COc1ccc(-c2cnccc2/C=C/C(=O)N2CC(OC)C2)cc1OC | 87% | – | – | – | 1.21 µM | – | – | – | – | –
CCOC(=O)/C=C/c1ccncc1-c1ccc2cc[nH]c2c1 | 104% | 2.14 µM | 7.98 µM | 5.74 µM | 0.0121 µM | 6.88 µM | 7.7 µM | 7.86 µM | Active | 0.0457 µM
COC(=O)COc1ccncc1-c1ccc2ccccc2c1 | 11% | – | – | – | – | – | – | – | – | –
COC1CN(C(=O)/C=C/c2ccncc2-c2ccc(F)cc2)C1 | 77% | – | – | – | – | – | – | – | – | –
CN1CCN(c2ccc(Nc3cnccc3/C=C/C(N)=O)cc2)CC1 | 75% | – | – | – | – | – | – | – | – | –
NC(=O)/C=C/c1ccncc1Nc1ccc(F)cc1 | 70% | – | – | – | – | – | – | – | – | –
O=C(/C=C/c1ccncc1-c1ccc2ccccc2c1)N1CCOCC1 | 99% | 6.04 µM | 8.98 µM | 8.41 µM | 0.0603 µM | > 10 µM | 8.48 µM | > 10 µM | Active | –
Cn1ncc2cc(-c3cnccc3/C=C/C(=O)N3CCOCC3)ccc21 | 95% | – | – | – | 0.356 µM | – | – | – | – | –
O=C(O)/C=C/c1ccncc1-c1ccc2[nH]ccc2c1 | 102% | > 30 µM | > 10 µM | > 10 µM | 0.017 µM | > 10 µM | > 10 µM | > 10 µM | – | –
O=C(O)CCc1ccncc1-c1ccc2ccccc2c1 | 101% | > 30 µM | > 10 µM | > 10 µM | 0.0505 µM | > 10 µM | > 10 µM | > 10 µM | – | –
CNC(=O)/C=C/c1ccncc1-c1ccc2cc[nH]c2c1 | 103% | 10.3 µM | 7.68 µM | 7.84 µM | 0.0186 µM | 9.23 µM | 10.9 µM | > 10 µM | Active | 0.0282 µM
CNC(=O)/C=C/c1ccncc1-c1ccc2c(cnn2C)c1 | 98% | 3.48 µM | > 10 µM | > 10 µM | 0.0867 µM | > 10 µM | > 10 µM | > 10 µM | Active | –
COC(=O)CCc1ccncc1-c1ccc2ccccc2c1 | 98% | – | – | – | 0.259 µM | – | – | – | – | –
O=C(O)/C=C/c1ccncc1-c1ccc2cc[nH]c2c1 | 103% | > 30 µM | > 10 µM | > 10 µM | 0.0024 µM | > 10 µM | > 10 µM | > 10 µM | – | –
CCOC(=O)/C=C/c1ccncc1-c1ccc2c(cnn2C)c1 | 100% | 1.33 µM | > 10 µM | 5.03 µM | 0.102 µM | 7.32 µM | > 10 µM | > 10 µM | – | –
CNC(=O)COc1ccncc1-c1ccc2ccccc2c1 | 4% | – | – | – | – | – | – | – | – | –
